The target of this assay is B-Raf (V600E)-kinase (Homo sapiens, UniProt P15056, V600E). Put plainly: Kinase test B-Raf (V600E). It counts as biochemical. The note with it: compound concentration 2 μM; 100% = no inhibition, 0% = total inhibition; read-out: % CTL (residual activity of the enzyme relative to DMSO control). The procedure, abridged: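 Kinase preincubated with compound (typically 2 μM to 0.119 nM or 0.017 nM, 5% DMSO) 1 h at RT, then reacted 60 min at RT with 250 μM ATP and biotinylated MEK1. Phospho-MEK (Ser217/221) captured on streptavidin, detected by europium time-resolved fluorescence; IC50 from dose-response curves.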
Chain of B-Raf (V600E)-kinase (P15056 whole entry V600E): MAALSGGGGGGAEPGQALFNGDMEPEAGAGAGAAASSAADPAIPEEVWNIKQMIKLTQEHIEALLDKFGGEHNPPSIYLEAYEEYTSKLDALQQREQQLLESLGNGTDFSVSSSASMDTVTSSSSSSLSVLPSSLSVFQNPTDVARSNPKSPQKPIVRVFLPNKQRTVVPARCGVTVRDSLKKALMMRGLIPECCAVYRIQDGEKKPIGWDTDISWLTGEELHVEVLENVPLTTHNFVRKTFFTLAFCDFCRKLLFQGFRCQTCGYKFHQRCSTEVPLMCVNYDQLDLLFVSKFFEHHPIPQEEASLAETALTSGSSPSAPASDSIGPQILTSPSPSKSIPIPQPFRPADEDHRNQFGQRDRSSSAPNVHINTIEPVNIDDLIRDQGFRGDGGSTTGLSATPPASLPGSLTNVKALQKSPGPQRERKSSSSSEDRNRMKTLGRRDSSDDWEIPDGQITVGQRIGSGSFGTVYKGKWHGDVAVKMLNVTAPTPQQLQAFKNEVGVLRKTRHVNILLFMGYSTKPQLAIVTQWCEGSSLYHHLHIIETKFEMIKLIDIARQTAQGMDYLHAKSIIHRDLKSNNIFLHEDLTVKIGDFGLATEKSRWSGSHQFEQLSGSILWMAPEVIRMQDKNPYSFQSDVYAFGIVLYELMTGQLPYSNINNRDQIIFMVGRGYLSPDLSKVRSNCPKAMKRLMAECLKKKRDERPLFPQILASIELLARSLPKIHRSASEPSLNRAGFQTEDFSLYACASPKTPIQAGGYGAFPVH
For the compound `Cc1ncc(NC(=O)c2cccc(OC(F)(F)F)c2)cc1-n1cc(-c2cncc(N3CCN(C(C)C)CC3)c2)nn1` [XII-42], the remaining activity at 2 µM was 4.3%. For `COc1ccc(C(=O)Nc2cnc(C)c(-n3cc(-c4cncc(N5CCN(C(C)C)CC5)c4)nn3)c2)cc1C(F)(F)F` [XII-43], the remaining activity at 2 µM was found to be 2.1%. Take `CCOCCN1CCN(c2cncc(-c3cn(-c4cc(NC(=O)c5ccc(OC)c(C(F)(F)F)c5)cnc4C)nn3)c2)CC1` [XII-44]: the remaining activity at 2 µM was 1.9%. The figure for `COc1ccc(C(=O)Nc2cnc(C)c(-n3cc(-c4cncc(N5CCN(C(C)(C)C)CC5)c4)nn3)c2)cc1C(F)(F)F` [XII-45] is 2.9%.

For the compound `COCCCN1CCN(c2cncc(-c3cn(-c4cc(NC(=O)c5ccc(OC)c(C(F)(F)F)c5)cnc4C)nn3)c2)CC1` [XII-46], the remaining activity at 2 µM was found to be 1.8%. The figure for `Cc1ncc(NC(=O)c2cccc(OC(F)(F)F)c2)cc1-n1cc(-c2cncc(N3CCN(C(C)(C)C)CC3)c2)nn1` [XII-47] is 4%; for `COCCCN1CCN(c2cncc(-c3cn(-c4cc(NC(=O)c5cccc(OC(F)(F)F)c5)cnc4C)nn3)c2)CC1` [XII-48] it is 2.4%. The figure for `Cc1ncc(NC(=O)c2cccc(C(C)(C)C#N)c2)cc1-n1cc(-c2cncc(N3CCN(CC4CC4)CC3)c2)nn1` [XII-49] is 2.3%; for `Cc1ncc(NC(=O)c2cccc(C(C)(C)C#N)c2)cc1-n1cc(-c2cncc(N3CCN(C(C)C)CC3)c2)nn1` [XII-50] it is 6.8%; for `CCN1CCN(c2cncc(-c3cn(-c4cc(NC(=O)c5cccc(C(C)(C)C#N)c5)cnc4C)nn3)c2)CC1` [XII-51] it is 2.3%. Take `Cc1ncc(NC(=O)c2cccc(C(C)(C)C#N)c2)cc1-n1cc(-c2cncc(NCCN(C)C)c2)nn1` [XII-52]: the remaining activity at 2 µM worked out at 7%.

Take `Cc1ncc(NC(=O)c2cccc(C(C)(C)C#N)c2)cc1-n1cc(-c2cncc(N(C)CCN(C)C)c2)nn1` [XII-53]: the remaining activity at 2 µM is 7%. The same measure for `CCOCCN1CCN(c2cncc(-c3cn(-c4cc(NC(=O)c5cccc(OC(F)(F)F)c5)cnc4C)nn3)c2)CC1` [XII-54]: 10.8%; for `CCN1CCN(c2cncc(-c3cn(-c4cc(NC(=O)c5cccc(OC(F)(F)F)c5)cnc4C)nn3)c2)CC1` [XII-55]: 1.8%; for `Cc1ncc(NC(=O)c2cc(C(F)(F)F)ccn2)cc1-n1cc(-c2cncc(N3CCN(C)CC3)c2)nn1` [XII-57]: 0.9%. Regarding `Cc1ncc(NC(=O)c2cccc(C(C)(C)C#N)c2)cc1-n1cc(-c2cncc(CO)c2)nn1` [XII-63], the remaining activity at 2 µM was 3.8%. For the compound `Cc1ncc(NC(=O)c2cccc(C(C)(C)C#N)c2)cc1-n1cc(-c2cncc(CN(C)C)c2)nn1` [XII-64], the remaining activity at 2 µM came out at 0.9%. As to `Cc1ncc(NC(=O)c2cccc(C(C)(C)C#N)c2)cc1-n1cc(-c2cncc(CN3CCCC3)c2)nn1` [XII-65], the remaining activity at 2 µM was 0.9%.

(Values after patent publication US8778929B2, “Substituted heteroaryl inhibitors of B-RAF” (Boehringer Ingelheim International GmbH, priority 2008, dated 2014).)
